Consider 1 substance from publication PMC12587545, “Noncytotoxic polymyxin derivatives enhance antibiotic action against multidrug-resistant Gram-negative bacteria” (Antimicrobial Agents and Chemotherapy, 2025).

Where two headings read alike, the source gives them in different places.

In data set [1] the test system is E. cloacae. As to the method:
(§1) The bacterial isolates were acquired from ATCC or the Canadian Ward Surveillance (CANWARD) study ([56]). CANWARD isolates were collected from infected patients admitted to participating medical centers across Canada.
(§2) The antibiotic or compound was serially diluted 2-fold in CAMHB on a 96-well plate and was incubated with equal volumes of bacterial inoculum overnight at 37°C. Wells containing only media were used as negative controls, and wells containing only bacteria were used as positive controls. Antibacterial activity was measured by the MIC, or the lowest concentration of agent required to inhibit visible bacterial growth. Turbidity was confirmed with a Molecular Devices (United States) EMax Plus microplate reader at a wavelength of 590 nm.

In data set [2] the test system is K. pneumoniae. As to the method: as §1, §2
Data set [3] has as its system P. aeruginosa. The procedure: as §1, §2
Data set [4] has as its system A. baumannii. In kind it is cell-based, Acinetobacter baumannii.
Description: Gram-negative and Gram-positive bacterial isolates were grown in lysogeny broth (LB) and brain heart infusion, respectively, overnight in a shaking incubator at 250 rpm and at 37°C.
The antibacterial activity of the antibiotics and compounds was assessed using the broth microdilution assay in accordance with Clinical Laboratory Standards Institute (CLSI) guidelines ([36]), and by following a previously described protocol ([27][–][29], [54], [55]). Bacterial culture grown overnight was diluted in saline to 0.5 McFarland turbidity and was further diluted 1:50 in CAMHB to attain a final concentration of 5 × 10^5 colony-forming units (cfu)/mL for inoculation. The antibiotic or compound was serially diluted 2-fold in CAMHB on a 96-well plate and was incubated with equal volumes of bacterial inoculum overnight at 37°C. Wells containing only media were used as negative controls, and wells containing only bacteria were used as positive controls. Antibacterial activity was measured by the MIC, or the lowest concentration of agent required to inhibit visible bacterial growth. Turbidity was confirmed with a Molecular Devices (United States) EMax Plus microplate reader at a wavelength of 590 nm.
Data set [5] concerns E. coli. The procedure: as §1
The antibiotic or compound was serially diluted 2-fold in CAMHB on a 96-well plate and was incubated with equal volumes of bacterial inoculum overnight at 37°C. Wells containing only media were used as negative controls, and wells containing only bacteria were used as positive controls. Antibacterial activity was measured by the MIC, or the lowest concentration of agent required to inhibit visible bacterial growth.

Data set [6] concerns SK-N-SH. In words: Cell viability assay (PrestoBlue). In kind it is cell-based. As to conditions: SK-N-SH. The procedure:
(§3) Kidney cell lines, HK-2 (CRL-2190) and RPTEC/TERT1 (CRL-4031), and neural cell lines, U-87 MG (HTB-14) and SK-N-SH (HTB-11), were obtained from American Type Culture Collection (ATCC). HK-2 cells were cultured in T75 flasks with keratinocyte serum-free medium supplemented with bovine pituitary extract, human epidermal growth factor, and 2.5% FBS. RPTEC/TERT1 cells were cultured in T75 flasks with Dulbecco’s modified Eagle’s medium:F12 supplemented with the ATCC (United States) human telomerase reverse transcriptase immortalized RPTEC growth kit, G418 (0.1 mg/mL final concentration), and 2% FBS. Both U-87 MG and SK-N-SH cells were cultured in minimal essential media supplemented with 10% FBS. The cells were incubated in a humidified atmosphere at 5% CO2 and at 37°C.
(§4) The cytotoxicity of the compounds toward the mammalian cell lines was assessed using the cell viability assay protocols as previously described ([29]). Designated wells in 96-well plates were seeded with HK-2 (5,000 cells), RPTEC/TERT1 (8,000 cells), U-87 MG (7,000 cells), or SK-N-SH (8,000 cells) in 50 µL. Blank wells received an identical volume of only media. […] Subsequently, PrestoBlue reagent (Invitrogen, United States) was added to the wells to a final concentration of 10% (vol/vol), and the plate was incubated for an additional 1 h. Fluorescence was measured with a SpectraMax M2 plate reader (Molecular Devices, United States), at excitation and emission wavelengths of 560 and 590 nm, respectively. Values from the blank wells were subtracted from the corresponding wells containing cells. The cell viability relative to the controls with vehicle was calculated and presented as mean ± standard deviation of at least two experiments with five replicates each. CC50 values were obtained using GraphPad Prism (version 10.4.1) by non-linear regression (four-parameter logistic fit).

Data set [7] deals with U-87 MG. As to the kind of experiment: Cell viability assay (PrestoBlue). As to conditions: U-87 MG. In kind it is cell-based. As to the method:
as §3, §4

For data set [8] the following is noted: cited from earlier work. The procedure:
Although the amphiphilic nature of polymyxins is crucial to permeabilize the outer membrane, this property can also be detrimental as it increases binding affinity to serum proteins, thereby limiting bioavailability ([50]). […] To assess the impact of serum binding on antibiotic potentiation, FBS was added to the media to simulate these conditions (Table 10). Zoliflodacin potentiation by compound 1 was diminished with increasing ...

By MIC is commonly meant the least concentration at which growth counts as inhibited. A lower MIC goes with greater potency. Consider Polymyxin B [PMB], for which the minimum inhibitory concentration (MIC) in data set [1] (E. cloacae 117029) was 0.5 µg/mL; in data set [1] (E. cloacae 121887, colistin-resistant), more than 128 µg/mL; in data set [2] (K. pneumoniae 113250, colistin-resistant), 128 µg/mL; in data set [2] (K. pneumoniae 116381) it was 1 µg/mL; in data set [3] (P. aeruginosa 259-96916, clinical isolate), not above 0.063 µg/mL; in data set [3] (P. aeruginosa 262-101856, clinical isolate), 0.5 µg/mL. In addition, the minimal inhibitory concentration (MIC) in data set [3] (P. aeruginosa 264-104354, clinical isolate) is 2 µg/mL; in data set [3] (P. aeruginosa 101243, colistin-resistant), more than 128 µg/mL; in data set [3] (P. aeruginosa 114228, colistin-resistant) it was 64 µg/mL; in data set [3] (P. aeruginosa PAO1, wild-type, CAMHB, overnight 37°C), 1 µg/mL; in data set [4] (A. baumannii 92247, colistin-resistant), 8 µg/mL; in data set [4] (A. baumannii 110193), 1 µg/mL. Besides, the MIC in data set [4] (A. baumannii AB027) was 0.25 µg/mL; in data set [4] (A. baumannii ATCC 17978, wild-type), 2 µg/mL; in data set [5] (E. coli 94393, colistin-resistant), 4 µg/mL; in data set [5] (E. coli 94474, colistin-resistant) it was 16 µg/mL; in data set [5] (E. coli 107115) it was 0.25 µg/mL; in data set [5] (E. coli 131629), not above 0.25 µg/mL. Also, the MIC in data set [5] (E. coli ATCC 25922, wild-type) is 0.5 µg/mL. Moreover, the “toxicity” value in data set [6] and in data set [7] was “lack of toxicity” in each case. Moreover, the mean protein binding in data set [8] is listed as more than 90%. The median protein binding in data set [8] is 58%.
